Measurements published in patent US20250213584A1, “ERCC1-XPF COMPLEX INHIBITOR COMPOUNDS AND THE USE THEREOF IN THE TREATMENT OF CANCER” (FUNDAÇÃO D. ANNA DE SOMMER CHAMPALIMAUD E DR. CARLOS MONTEZ …, priority 2023, published 2025).

Tests used:
ERCC1-XPF = biological target: T1, ERCC1-XPF (Homo sapiens, UniProt Q92889); conditions: literature; cited from earlier work
T1 sequence (Q92889 1-916): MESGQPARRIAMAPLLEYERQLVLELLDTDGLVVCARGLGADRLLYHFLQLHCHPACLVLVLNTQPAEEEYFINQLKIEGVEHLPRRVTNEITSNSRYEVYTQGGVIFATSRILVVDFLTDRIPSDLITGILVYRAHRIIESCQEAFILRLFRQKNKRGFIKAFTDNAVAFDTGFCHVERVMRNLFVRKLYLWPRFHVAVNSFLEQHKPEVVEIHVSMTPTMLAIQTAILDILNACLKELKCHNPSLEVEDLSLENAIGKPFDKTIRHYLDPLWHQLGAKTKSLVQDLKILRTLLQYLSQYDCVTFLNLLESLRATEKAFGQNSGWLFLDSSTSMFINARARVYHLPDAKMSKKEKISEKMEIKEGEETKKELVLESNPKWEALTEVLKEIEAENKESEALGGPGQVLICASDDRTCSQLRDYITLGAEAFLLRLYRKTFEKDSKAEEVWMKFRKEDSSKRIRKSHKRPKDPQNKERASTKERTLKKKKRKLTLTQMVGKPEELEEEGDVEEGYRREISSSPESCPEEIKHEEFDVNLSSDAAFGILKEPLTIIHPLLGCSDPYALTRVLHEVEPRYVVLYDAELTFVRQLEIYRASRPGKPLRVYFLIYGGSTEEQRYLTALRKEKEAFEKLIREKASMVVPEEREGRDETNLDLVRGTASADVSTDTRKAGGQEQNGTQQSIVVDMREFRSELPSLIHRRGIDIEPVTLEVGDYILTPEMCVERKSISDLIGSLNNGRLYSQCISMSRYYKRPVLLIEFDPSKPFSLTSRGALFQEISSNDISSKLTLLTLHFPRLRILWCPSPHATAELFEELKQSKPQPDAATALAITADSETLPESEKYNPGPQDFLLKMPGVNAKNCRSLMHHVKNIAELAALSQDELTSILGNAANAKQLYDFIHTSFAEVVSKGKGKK

H1299 cells [1] = assay: Crystal violet (CV) staining assay, cisplatin cytotoxicity; assay type: cell-based, human; conditions: 72-h incubation
Protocol: To evaluate the cisplatin cytotoxicity effect in the selected H1299 cell line (highest ERCC1 expression), a concentration-response profile was established resorting to two mechanistically different cell viability assays, the CV staining and the MTS reduction assays (FIG. 9). The IC50 values for cisplatin were also calculated for a 72-h incubation period based on its dose-response profile. The cytotoxicity of cisplatin in H1299 cells was evaluated according to a previously described crystal violet (CV) staining protocol. This assay allows the colorimetric determination of adherent cells by staining their nucleus. First, cells were inoculated at a density of approximately 3×10^3 cells/well in 200 μL of complete culture medium in 96-well plates. After adherence (24 h), culture medium was renewed, and the cells were incubated with a range of 1-30 μM of cisplatin for another 72 h. After incubation, cells were washed with warm PBS to remove non-adherent cells (non-viable cells). The adherent cells were then fixated with ice-cold 96% ethanol for 10 min and stained with 0.1% crystal violet in 10% ethanol for 5 min. […] Absorbance was measured at 595 nm (OD595) using a SPECTROstar OMEGA microplate reader. […] The IC50 values were calculated based on the obtained concentration-response curves using GraphPad Prism® 9.0 (GraphPad Software, Inc., La Jolla, CA, USA).

H1299 cells [2] = assay: MTS reduction assay, cisplatin cytotoxicity; assay type: cell-based, human
Protocol: To evaluate the cisplatin cytotoxicity effect in the selected H1299 cell line (highest ERCC1 expression), a concentration-response profile was established resorting to two mechanistically different cell viability assays, the CV staining and the MTS reduction assays (FIG. 9). The IC50 values for cisplatin were also calculated for a 72-h incubation period based on its dose-response profile. The 3-(4,5-dimethylthiazol-2-yl)-5-(3-carboxymethoxyphenyl)-2-(4-sulfophenyl)-2H-tetrazolium salt (MTS) reduction assay was carried out as a confirmatory assay of cell viability. This methodology is commonly used in in vitro toxicology and is based on the enzymatic reduction of a tetrazolium salt in viable cells by mitochondrial enzymes (NAD-dependent dehydrogenase) with the formation of a colored formazan product. […] H1299 cells were incubated for 2 h30 with the MTS reagent and the absorbance was measured at 490 nm and 690 nm (reference wavelength) using a SPECTROstar OMEGA microplate reader. Absorbance values presented by vehicle-treated control cells corresponded to 100% of cell viability. […] The IC50 was also calculated based on the concentration-response curve using GraphPad Prism® 9.0.

| SMILES | disruption of ERCC1-XPF interaction (ERCC1-XPF) | IC50 (H1299 cells [1]) | IC50 (H1299 cells [2]; 72-h incubation) | cell death (H1299 cells [2]; cisplatin alone at 1 μM, 72 h) |
| --- | --- | --- | --- | --- |
| COc1ccc2nc3cc(Cl)ccc3c(Nc3ccc(O)c(CN4CCN(C)CC4)c3)c2c1 [F06] | ability to disrupt the interaction between ERCC1 and XPF |  |  |  |
| N.N.[Cl][Pt][Cl] [cisplatin] |  | 3 µM | 3.7 µM | 10-15% |
